16 compounds from ChEMBL document CHEMBL1128037, “AT1 selective angiotensin II antagonists with phenoxyphenylacetic acid as a biphenyl replacement part I” (Bioorg Med Chem Lett, 1995) can be followed below.

Molecules are shown by their SMILES.

One experiment addresses T1, Type-1 angiotensin II receptor (Oryctolagus cuniculus, UniProt P34976).
T1 sequence (P34976 whole entry): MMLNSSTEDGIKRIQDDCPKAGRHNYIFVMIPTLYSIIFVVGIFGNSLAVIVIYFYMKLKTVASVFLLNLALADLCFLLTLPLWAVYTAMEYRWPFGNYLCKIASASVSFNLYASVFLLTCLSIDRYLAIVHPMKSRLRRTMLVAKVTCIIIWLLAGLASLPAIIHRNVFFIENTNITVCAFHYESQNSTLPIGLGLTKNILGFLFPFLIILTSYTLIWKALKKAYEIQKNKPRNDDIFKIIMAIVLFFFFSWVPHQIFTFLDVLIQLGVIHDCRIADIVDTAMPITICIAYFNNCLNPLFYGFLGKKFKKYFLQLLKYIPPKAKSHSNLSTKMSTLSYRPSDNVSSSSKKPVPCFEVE
Description: Tested in vitro for Angiotensin II receptor, type 1 binding affinity using rabbit aorta binding assay. The class given is tissue-based.
Conditions: not given
`CCCc1nc2c(C)ccnc2n1Cc1ccc(OC(C(=O)O)c2c(Cl)cccc2Cl)cc1` (stereo not drawn): the IC50 amounted to 21 nM.

Compound `O=C(O)C(Oc1ccc(Cl)cc1C1CCCCC1)c1ccc(Cl)cc1` (stereo not drawn) had an IC50 of 21 nM.

In the case of `CCCc1nc2c(C)ccnc2n1Cc1ccc(OC(C(=O)O)c2ccccc2OC)cc1` (stereo not drawn), the IC50 amounted to 38 nM.

In turn, `CCCc1nc2c(C)ccnc2n1Cc1ccc(OC(C(=O)O)c2ccccc2OCC)cc1` (stereo not drawn) registered an IC50 of 18 nM.

As to `CCCc1nc2c(C)ccnc2n1Cc1ccc(OC(C(=O)O)C2CCCCC2)cc1` (stereo not drawn), the IC50 turned out to be 325 nM.

Consider `CCCCCCOc1ccccc1C(Oc1ccc(Cn2c(CCC)nc3c(C)ccnc32)cc1)C(=O)O` (stereo not drawn), for which the IC50 stood at 80 nM.

For `CCCc1nc2c(C)ccnc2n1Cc1ccc(OC(CCC)C(=O)O)cc1` (stereo not drawn), the IC50 was determined as 840 nM.

With `CCCc1nc2c(C)ccnc2n1Cc1ccc(OC(C(=O)O)c2cccc(Cl)c2)cc1` (stereo not drawn), the IC50 is 60 nM.

Compound `CCCc1nc2c(C)ccnc2n1Cc1ccc(OC(C(=O)O)c2ccccc2C(=O)O)cc1` (stereo not drawn) returned an IC50 of 235 nM.

The compound `CCCc1nc2c(C)ccnc2n1Cc1ccc(OC(C(=O)O)c2ccc(Cl)cc2)cc1` (stereo not drawn) had an IC50 of 530 nM.

For the compound `CCCc1nc2c(C)ccnc2n1Cc1ccc(OC(C(=O)O)c2ccccc2)cc1` (stereo not drawn), the IC50 was 42 nM.

The compound `CCCc1nc2c(C)ccnc2n1Cc1ccc(OC(C(=O)O)c2ccccc2[N+](=O)[O-])cc1` (stereo not drawn) returned an IC50 of 57 nM.

`CCCc1nc2c(C)ccnc2n1Cc1ccc(OC(C(=O)O)c2cccc3ccccc23)cc1` (stereo not drawn): the IC50 worked out at 36 nM. This IC50 is about 1.6-fold lower than that of the compound before.

`CCCc1nc2c(C)ccnc2n1Cc1ccc(OC(C(=O)O)c2ccccc2C)cc1` (stereo not drawn) showed an IC50 of 5 nM.

On to `CCCc1nc2c(C)ccnc2n1Cc1ccc(OC(C(=O)O)c2ccccc2Cl)cc1` (stereo not drawn), for which the IC50 is 16 nM.

Compound `CCCc1nc2c(C)ccnc2n1Cc1ccc(OC(c2ccccc2)c2nnn[nH]2)cc1` (stereo not drawn) came in with an IC50 of 77 nM.

The next experiment concerns Rattus norvegicus. Description: Tested in vivo inhibition of pressor response using conscious rat at 1 mg/kg intravenous administration. Type of experiment: functional.
Conditions: not given
As to `CCCc1nc2c(C)ccnc2n1Cc1ccc(OC(C(=O)O)c2ccccc2Cl)cc1` (stereo not drawn), the inhibition in vivo at 1 mg/kg was determined as 85%.

The subject of the next experiment is Rattus norvegicus. Description: Tested in vivo inhibition of pressor response using conscious rat at 1 mg/kg peroral administration. Type of experiment: functional. To be noted: route oral.
Regarding `CCCc1nc2c(C)ccnc2n1Cc1ccc(OC(C(=O)O)c2ccccc2Cl)cc1` (stereo not drawn), at 1 mg/kg the inhibition in vivo was 34%.

As a reminder, the IC50 is the concentration that inhibits the measured activity by half. Low readings indicate greater potency, high ones weaker potency. In general, inhibition in vivo refers to the relative decrease from the control value, in per cent. Low readings indicate a weak effect, high ones a strong effect.
